B1: GH16B β-agarase: Thermostable endolytic GH16 family β-agarase (SEQ ID NO: 1, 597 aa, 63.8 kDa) from Cellvibrio sp. KY-GH-1, expressed in E. coli (protein, listed as Cellvibrio sp.)
chain: MKKITSCIAAALLLSAPLASFAADWDSVPIPAAAGTGKTWQLQSISDEFNYTASPTVKPAEFNTRWNPSFINSWTGPGDSEFNAGHSYTSGGSLALQSSAKAGTNKIYTGIISSKETFTYPLYLEARVKHTGNTLANAVWMLSADSTQEIDAMESYGSDRAGQEWFDQRMHVSHHVFIRSPFQDYQPKDEGSWVVNPAGGTWRGAMHVYGVHWKDPWNLDYYIDGVKVRTVSGPAMIDPYNFTNGTGINKPLHIIIDVEHQDWRDVRPTAAELADTSKSIMFVDWIRVYKPVTSSATSSSNSVSSSSSSLSNSSSSSATTVIDFANYFDTGKSTASVAGDTYVGFNKSGSGNINYNTAGDWADYLVTLPSDGQYKIEVTTASPMTSGIGAKLSVDGIYVSTTSLAATGGWELYSASTLANNLSIGAGTHTVRIESTGTSAWQWNGDEIRVTKVGSAPVGSPTTPAPVAMIIQAESFSATGGVYDGFKTYSVNGVSAINYNQRGDWADYAVNVAADGSYTFNAYVSSPMSGAALEVSVDGVKVLTQAVPNNGSWDSFQKVSSASKIALTKGAHTIRVTSAGTTSSTWEWNADKFELIP

Columns and labels:
GH16B β-agarase = assay: Agarase activity assay (DNS method): effects of metal ions, reducing agent and EDTA on enzymatic activity; assay type: biochemical, Cellvibrio sp. KY-GH-1; details: for Relative activity (%): relative to untreated control, mean ± SD (n = 3); for Effect on the enzymatic activity: 0.5 to 2.5 mM
Method: (§1) Quantitative analysis of GH16B β-agarase activity was performed using the DNS method, which detects reducing sugars released from agarose. The enzyme solution (100 μL) was mixed with an equal volume of 0.8% melted agarose in an appropriate buffer. The content of reducing sugars formed in the reaction mixture was determined colorimetrically using DNS reagent after 30 min of incubation at 50° C. The amount of enzyme that produced reducing power equivalent to 1 μmol of D-galactose per min was defined as one unit of enzymatic activity.
(§2) The optimal temperature was determined using 50 mM Tris-HCl buffer (pH 7.0) for 30 min over a temperature range of 25 to 70° C. The optimal pH was determined using 50 mM Mollvaine buffer ([…] to 7.5) and 50 mM Tris-HCl buffer (pH 7.5 to 10.0). For temperature and pH stability assays, aliquots of enzyme were preincubated at the indicated temperature and pH for the indicated time, and then the relative enzyme activity was measured under standard assay conditions (30 min, 50° C., 50 mM Tris-HCl buffer, pH 7.0). The kinetic parameters of GH16B β-agarase were determined by adding a known amount of the enzyme solution to the agarose substrate solution (1 to 5 mg/mL agarose in 50 mM Tris-HCl, pH 7.0). The Lineweaver-Burk equation, generated via GraphPad Prism 8 statistical package (GraphPad Software Inc., USA), was used to calculate Km and Vmax values. To examine the effects of metal ions, reducing agent, and chelator EDTA on enzymatic activity, various metal ions (CaCl2, CuSO4, KCl, MgCl2, MnCl2, MnSO4, and NaCl), TCEP, or EDTA were used at the indicated concentrations under standard analytical conditions.

[1] = Zymogram for agarase activity on LB agarose plates (Lugol's iodine); assay type: cell-based, E. coli BL21 (DE3) pLysS transformants; details: among transformants expressing GH16A, GH16B, GH16C, GH16D β-agarases
Method: E. coli BL21 (DE3) pLysS transformants harboring the recombinant pET-30a plasmid containing GH16A, GH16B, GH16C, or GH16D were spotted onto LB agarose plates (containing 1.5% agarose ((Invitrogen, Life technology, Grand Island, NY, USA), 50 μg/mL chloramphenicol, 25 μg/mL kanamycin, and 0.1 mM IPTG) and then incubated for 3 days at 37° C. The plates were stained with Lugol's at room iodine solution temperature.

[2] = Kinetic parameters of GH16B β-agarase (Lineweaver-Burk, DNS method); assay type: biochemical; details: for agarose
Method: as §1, §2

[3] = Substrate hydrolysis and agarose liquefaction analysed by TLC and MALDI-TOF/TOF MS; assay type: biochemical
Method: TLC analysis was performed for GH16B β-agarase-catalyzed hydrolysates of agarose, NAOS, or AOS on Silica Gel 60 aluminum plates, which were developed with n-butanol-ethanol-H2O [3:2:2 (v/v)]. To detect oligosaccharides, a visualization solution (containing 0.2% (w/v) naphthoresorcinol, 10% (v/v) H2SO4, ethanol) was sprayed, followed by heating at 80° C. NA2 and the NAOS standard mixture containing NA2-NA18 were used as standards.
MALDI-TOF/TOF MS was performed according to previously described methods to analyze the hydrolytic products of agarose or AOS through enzymatic reactions. The assisted laser desorption/ionization tandem time-of-flight mass spectrometry (MALDI-TOF/TOF MS) was performed in the positive ion reflectron mode using the ultraflextreme system (Bruker Daltonics). The purified reaction product was dissolved in water, 1 μL of the dissolved reaction product was spotted onto a stainless steel target plate, and 0.3 μL of 0.01 M NaCl and […] of 50 mg/mL 2,5-dihydroxybenzoic acid in 50% acetonitrile were added thereto. The spots were rapidly dried under vacuum for homogeneous crystallization. Each acquired spectrum represents the combined signal from 800 laser shots at each of 3 random locations on the spot, totaling 2,400 laser shots, using a 1-kHz laser. The laser attenuator offset and range were set at 68% and 15%, respectively, with the laser focus set at 50%. Mass spectra were recorded over an m/z range of 0 to 5,100. To obtain high-resolution data, the detector sampling rate was set at a maximum of 4.00 giga samples/s, and the detector gain was set at 4.0×. Mass spectra were externally calibrated using maltooligosaccharides isolated from commercial beer. A ladder of hexose polymers, spaced 1 hexose unit (162.053 Da) apart, provided comprehensive coverage of the entire mass acquisition range, enabling the accurate mass calibration of the MALDI-TOF/TOF MS just prior to the sample analysis. Raw MS data were processed with FlexAnalysis software (version 3.3; Bruker Daltonics). […]

[4] = Method: as §1
as §2, with “The optimal temperature was determined using 50 mM Tris-HCl buffer (pH 7.0) for 30 min over a temperature range of 25 to 70° C.” left out

Molecule	Relative activity (%) (GH16B β-agarase; 0.5 mM metal ion/chemical)	Relative activity (%) (GH16B β-agarase; 1.0 mM metal ion/chemical)	Relative activity (%) (GH16B β-agarase; 2.5 mM metal ion/chemical)	Effect on the enzymatic activity (GH16B β-agarase)	also measured
[Cl-].[Na+] [NaCl]	100 (±0.30) %	109 (±5.33) %	101 (±2.25) %	no significant effect	
O=C(O)CCP(CCC(=O)O)CCC(=O)O [TCEP, tris(2-carboxyethyl)phosphine, reference compound]	100 (±1.55) %	109 (±2.85) %	117 (±6.00) %		Enhancement of enzymatic activity (GH16B β-agarase; 5 to 15 mM TCEP, dose-dependent, 0.8 μg/mL enzyme, 0.4% agarose, pH 7.0, 50° C., 30 min): up to 1.6 fold
O=C(O)CN(CCN(CC(=O)O)CC(=O)O)CC(=O)O [EDTA, ethylenediamine tetraacetic acid, reference compound]	95 (±4.75) %	95 (±2.02) %	91 (±4.35) %	no significant effect	
O=S(=O)([O-])[O-].[Cu+2] [CuSO4]	103 (±0.25) %	97 (±1.45) %	74%		
[Cl][Mn][Cl] [MnCl2]	125 (±1.40) %	163 (±2.60) %	155 (±3.00) %		
[Cl-].[K+] [KCl]	103 (±1.20) %	109 (±6.41) %	104 (±3.45) %	no significant effect	
[Ca+2].[Cl-].[Cl-] [CaCl2]	96 (±1.80) %	110 (±6.85) %	103 (±0.90) %	no significant effect	
[Cl-].[Cl-].[Mg+2] [MgCl2]	94 (±2.80) %	107 (±0.80) %	100 (±3.55) %	no significant effect	
O=S(=O)([O-])[O-].[Mn+2] [MnSO4]	146 (±1.95) %	156 (±0.70) %	156 (±1.90) %		
B1					Agarose-degrading activity (bright clear zone around the colonies) [1]: highest; Vmax [2]: 542.0 U/mg; kcat [2]: 576.3 s⁻¹; Km ([2]; 50 mM Tris-HCl, pH 7.0): 14.40 mg/mL; Agarose concentration completely hydrolysed into NA4/NA6 ([3]; 1.6 μg/mL enzyme, 1 mM MnCl2, 10 mM TCEP, 50 mM Tris-HCl, pH 7.5, 50° C., 14 hours, magnetic stirring): up to 9.0%; End products of hydrolysis ([3]; AOS substrate): NA4/NA6 but also A5; End products of hydrolysis ([3]; agarose substrate): NA4 and NA6; Optimum pH [4]: 7.0; Optimal temperature (highest activity) ([4]; 0.4% agarose, 0.8 μg/mL enzyme, pH 7.0, 30 min): 50 °C; Maximum activity retained ([4]; over the range of 25 to 60° C.): more than 80%; pH stability ([4]; pH 4): rapidly became inactive

Source: patent US20260035722A1, “METHOD FOR LIQUEFYING AGAROSE AND PRODUCING NEOAGAROTETRAOSE/NEOAGAROHEXAOSE BY USING THERMOSTABLE GH16B BETA-AGARASE DERIVED FROM NOVEL AGAR-DEGRADING BACTERIUM” (Kyungpook National University Industry-Academic Cooperation …, priority 2022, published 2026)
